In patent publication EP0931078B1, “NOVEL TRICYCLIC PIPERIDINYL COMPOUNDS USEFUL AS INHIBITORS OF FARNESYL-PROTEIN TRANSFERASE” (SCHERING CORPORATION, priority 1996, dated 1998):
Read-outs that look alike come from different tables or passages of the source. Each block holds one molecule with its values, some of them ahead of it.

Target: T1, partially purified rat brain famesyl protein transferase (FPT) (Rattus norvegicus, UniProt Q02293+Q04631)
T1 construct: partially purified rat brain famesyl protein transferase (FPT); from tissue; host or cells: rat brain
Test: In vitro enzyme assay: inhibition of Ras-CVLS farnesylation by farnesyl protein transferase (FPT)
Format: biochemical
Description: • 1. In vitro enzyme assays: FPT IC50 (inhibition of famesyl protein transferase, in vitro enzyme assay) are determined by the methods disclosed in […] or WO 95/10516. […] Cell-based assay. COS IC50 values refer to the COS cells activity inhibition of Ras processing, are determined by the methods disclosed in […] or WO 95/10516.

T1 sequence (Q02293 whole entry, one chain of several): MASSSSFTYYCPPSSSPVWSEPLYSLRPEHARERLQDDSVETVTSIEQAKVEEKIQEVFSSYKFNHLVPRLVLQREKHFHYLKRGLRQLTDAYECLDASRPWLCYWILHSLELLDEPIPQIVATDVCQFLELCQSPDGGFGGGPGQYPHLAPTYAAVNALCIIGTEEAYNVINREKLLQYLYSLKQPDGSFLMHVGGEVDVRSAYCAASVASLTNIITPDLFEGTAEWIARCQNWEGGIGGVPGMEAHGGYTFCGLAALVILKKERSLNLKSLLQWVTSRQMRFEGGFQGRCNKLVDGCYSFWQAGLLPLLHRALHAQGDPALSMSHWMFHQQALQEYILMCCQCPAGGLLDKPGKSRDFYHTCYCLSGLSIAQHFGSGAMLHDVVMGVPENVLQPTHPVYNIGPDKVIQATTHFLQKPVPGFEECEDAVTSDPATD

Compound: O=C(NCCc1ccccn1)C1CCN(C2c3ccc(Cl)cc3CCc3cc(Br)cnc32)CC1 (racemic) [Example 6, 1-(3-Bromo-8-chloro-6,11-dihydro-5H-benzo[5,6]cyclohepta[1,2-b]pyridin-11-yl)-N-(2-pyridiriylethyl)-4-piperidinecarboxamide]
inhibition at 1.1 µM (read-out: FPT Inhibition): 9%

inhibition at 0.36 µM (@ 0.36 µM): 15%
Compound: NC(=O)N1CCC(NC(=O)C2CCN(C3c4ccc(Cl)cc4CCc4cc(Br)cnc43)CC2)CC1 (racemic) [Example 7, 1-(3-Bromo-8-chloro-6,11-dihydro-5H-benzo[5,6]cyclohepta[1,2-b]pyridin-11-yl)-N-[4-(N-carboxamidopiperidinyl)]-4-piperidinecarboxamide]

inhibition at 1.04 µM (@ 1.04 µM): 41%
Compound: NC(=O)N1CCC(CNC(=O)C2CCN(C3c4ccc(Cl)cc4CCc4cc(Br)cnc43)CC2)CC1 (racemic) [Example 8, 1-(3-Bromo-8-chloro-6,11-dihydro-5H-benzo[5,6]cyclohepta[1,2-b]pyridin-11-yl)-N-[4-(N-carboxamidopiperidinyl)methyl]-4-piperidinecarboxamide]

inhibition at 0.38 µM (@ 0.38 µM, read-out: FPT Inhibition): 16%
Compound: NCC1CCN(C(=O)C2CCN(C3c4ccc(Cl)cc4CCc4cc(Br)cnc43)CC2)CC1 (racemic) [Example 9 Step B]

Compound: O=C(NCc1cccnc1)C1CCCN(C2c3ccc(Cl)cc3CCc3cc(Br)cnc32)C1 (single isomer, unassigned) [Example 10 Isomer A, 1-(3-Bromo-8-chloro-6,11-dihydro-5H-benzo[5,6]cyclohepta[1,2-b]pyridin-11-yl)-N-(3-pyridinylmethyl)-3-piperidinecarboxamide]
inhibition at 1.14 µM (read-out: FPT Inhibition): 6.1%

Compound: O=C(NCc1cccnc1)C1CCCN(C2c3ccc(Cl)cc3CCc3cc(Br)cnc32)C1 (single isomer, unassigned) [Example 10 Isomer B, 1-(3-Bromo-8-chloro-6,11-dihydro-5H-benzo[5,6]cyclohepta[1,2-b]pyridin-11-yl)-N-(3-pyridinylmethyl)-3-piperidinecarboxamide]
IC50: 0.194 µM

Compound: O=C(NCc1cccnc1)C1CCCN(C2c3ccc(Cl)cc3CCc3cc(Br)cnc32)C1 (single isomer, unassigned) [Example 10 Isomer C, 1-(3-Bromo-8-chloro-6,11-dihydro-5H-benzo[5,6]cyclohepta[1,2-b]pyridin-11-yl)-N-(3-pyridinylmethyl)-3-piperidinecarboxamide]
IC50: 0.179 µM

Compound: O=C(NCc1cccnc1)C1CCCN(C2c3ccc(Cl)cc3CCc3cc(Br)cnc32)C1 (single isomer, unassigned) [Example 10 Isomer D, 1-(3-Bromo-8-chloro-6,11-dihydro-5H-benzo[5,6]cyclohepta[1,2-b]pyridin-11-yl)-N-(3-pyridinylmethyl)-3-piperidinecarboxamide]
IC50: 0.187 µM

inhibition at 1.1 µM (@ 1.1 µM, read-out: FPT Inhibition): 18%
Compound: O=C(NCc1ccncc1)[C@@H]1CCCCN1C1c2ccc(Cl)cc2CCc2cc(Br)cnc21 (single isomer, unassigned) [Example 12, 1-(3-Bromo-8-chloro-6,11-dihydro-5H-benzo[5,6]cyclohepta[1,2-b]pyridin-11-yl)-N-(4-pyridinylmethyl)-2S-piperidinecarboxamide]

FPT Inhibition (@ 1.1 µM): 21%
Compound: O=C(NCc1ccncc1)[C@@H]1CCCCN1C1c2ccc(Cl)cc2CCc2cc(Br)cnc21 (single isomer, unassigned) [Example 13, 1-(3-Bromo-8-chloro-6,11-dihydro-5H-benzo[5,6]cyclohepta[1,2-b]pyridin-11-yl)-N-(4-pyridinylmethyl)-2S-piperidinecarboxamide]

Compound: O=C(NCc1cccnc1)C1CCCN(C2c3ncc(Br)cc3CCc3cc(Cl)cc(Br)c32)C1 (single isomer, unassigned) [Example 17 Isomer A, 1-(3,10-Dibromo-8-chloro-6,11-dihydro-5H-benzo[5,6]cyclohepta[1,2-b]pyridin-11-yl)-N-(3-pyridinylmethyl)-3-piperidinecarboxamide]
IC50: < 0.0099 µM

Compound: O=C(NCc1cccnc1)C1CCCN(C2c3ncc(Br)cc3CCc3cc(Cl)cc(Br)c32)C1 (single isomer, unassigned) [Example 17 Isomer B, 1-(3,10-Dibromo-8-chloro-6,11-dihydro-5H-benzo[5,6]cyclohepta[1,2-b]pyridin-11-yl)-N-(3-pyridinylmethyl)-3-piperidinecarboxamide]
inhibition at 0.1 µM (read-out: FPT Inhibition): 3.4%

IC50 (unit printed as uM (Examples 49-54)): 0.1 µM
Compound: O=C(NCc1ccc[n+]([O-])c1)[C@@H]1CCCN(C2c3ncc(Br)cc3CCc3cc(Cl)cc(Br)c32)C1 (single isomer, unassigned) [Example 51, 1-(3,10-Dibromo-8-chioro-6,11-dihydro-5H-benzo[5,6]cyclohepta[1,2-b]pyridin-11-yl)-N-(3-pyridinylmethyl)-3-piperidinecarboxamide N1-oxide]

FPT Inhibition (@ 1.1 µM): FPT Inhibition = 0% @ 1.1 µM
Compound: O=C(NCc1ccncc1)[C@H]1CCCCN1C1c2ccc(Cl)cc2CCc2cc(Br)cnc21 (single isomer, unassigned) [Isomer A2 amide]

FPT Inhibition (@ 1.1 µM): FPT Inhibition = 13% @ 1.1 µM
Compound: O=C(NCc1ccncc1)[C@H]1CCCCN1C1c2ccc(Cl)cc2CCc2cc(Br)cnc21 (single isomer, unassigned) [Isomer B2 amide]

IC50: 0.3 µM
Compound: O=C(NCc1cccnc1)C1CCCCN1C1c2ccc(Cl)cc2CCc2cc(Br)cnc21 (single isomer, unassigned) [Isomer C1 amide]

FPT Inhibition (@ 0.38 µM): FPT Inhibition =11% @ 0.38 µM
Compound: O=C(NCc1cccnc1)[C@H]1CCCCN1C1c2ccc(Cl)cc2CCc2cc(Br)cnc21 (single isomer, unassigned) [Isomer C2 amide]

IC50: 0.16 µM
Compound: O=C(NCc1cccnc1)C1CCCCN1C1c2ccc(Cl)cc2CCc2cc(Br)cnc21 (single isomer, unassigned) [Isomer D1 amide]

FPT Inhibition (@ 0.38 µM): FPT Inhibition = 0% @ 0.38 µM
Compound: O=C(NCc1cccnc1)[C@H]1CCCCN1C1c2ccc(Cl)cc2CCc2cc(Br)cnc21 (single isomer, unassigned) [Isomer D2 amide]

IC50: 9.24 µM
Compound: O=C(Nc1ccncc1)C1CCN(C2c3ccc(Cl)cc3CCc3cccnc32)CC1 (stereo not drawn) [Example 1, 1-[8-Chloro-6,11-dihydro-5H-benzo[5,6]cyclohepta[1,2-b]pyridin-11-yl]-N-(4-pyridinyl)-4-piperidinecarboxamide]

Compound: O=C(Nc1ccncc1)C1CCN(C2c3ccc(Cl)cc3CCc3cc(Br)cnc32)CC1 (stereo not drawn) [Example 2, 1-(3-Bromo-8-chloro-6,11-dihydro-5H-benzo[5,6]cyclohepta[1,2-b]pyridin-11-yl)-N-(4-pyridinyl)-4-piperidinecarboxamide]
inhibition at 0.39 µM (read-out: FPT Inhibition): 0%

Compound: O=C(NCc1ccncc1)C1CCN(C2c3ccc(Cl)cc3CCc3cc(Br)cnc32)CC1 (stereo not drawn) [Example 3, 1-(3-Bromo-8-chloro-6,11-dihydro-5H-benzo[5,6]cyclohepta[1,2-b]pyridin-11-yl)-N-(4-pyridinylmethyl)-4-piperidinecarboxamide]
inhibition at 1.1 µM (read-out: FPT Inhibition): 21%

IC50: 1.3 µM
Compound: O=C(NCc1cccnc1)C1CCN(C2c3ccc(Cl)cc3CCc3cc(Br)cnc32)CC1 (stereo not drawn) [Example 4, 1-(3-Bromo-8-chloro-6,11-dihydro-5H-benzo[5,6]cyclohepta[1,2-b]pyridin-11-yl)-N-(3-pyridinylmethyl)-4-piperidinecarboxamide]

IC50: 1.8 µM
Compound: O=C(NCc1ccccn1)C1CCN(C2c3ccc(Cl)cc3CCc3cc(Br)cnc32)CC1 (stereo not drawn) [Example 5, 1-(3-Bromo-8-chloro-6,11-dihydro-5H-benzo[5,6]cyclohepta[1,2-b]pyridin-11-yl)-N-(2-pyridinyimethyl)-4-piperidinecarboxamide]
